Reference: patent US8962596B2 (Array BioPharma Inc., priority 2010, dated 2015)
Structures can show the parent of a compound that is named as a salt.

Columns and labels:
Format in all cases: biochemical
JAK3 = biological target: T1, JAK3 (Homo sapiens, UniProt P52333); assay: JAK3 Inhibition Assay (Omnia kinase fluorescence peptide substrate assay); conditions: averaged IC50 ranges; assay of Example D; 10 μM (Km app) or 1 mM ATP, 2.5 nM JAK3
T1 construct: purchased Invitrogen Corporation, Carlsbad, Calif; PV4080
T1 sequence (P52333 1-1124): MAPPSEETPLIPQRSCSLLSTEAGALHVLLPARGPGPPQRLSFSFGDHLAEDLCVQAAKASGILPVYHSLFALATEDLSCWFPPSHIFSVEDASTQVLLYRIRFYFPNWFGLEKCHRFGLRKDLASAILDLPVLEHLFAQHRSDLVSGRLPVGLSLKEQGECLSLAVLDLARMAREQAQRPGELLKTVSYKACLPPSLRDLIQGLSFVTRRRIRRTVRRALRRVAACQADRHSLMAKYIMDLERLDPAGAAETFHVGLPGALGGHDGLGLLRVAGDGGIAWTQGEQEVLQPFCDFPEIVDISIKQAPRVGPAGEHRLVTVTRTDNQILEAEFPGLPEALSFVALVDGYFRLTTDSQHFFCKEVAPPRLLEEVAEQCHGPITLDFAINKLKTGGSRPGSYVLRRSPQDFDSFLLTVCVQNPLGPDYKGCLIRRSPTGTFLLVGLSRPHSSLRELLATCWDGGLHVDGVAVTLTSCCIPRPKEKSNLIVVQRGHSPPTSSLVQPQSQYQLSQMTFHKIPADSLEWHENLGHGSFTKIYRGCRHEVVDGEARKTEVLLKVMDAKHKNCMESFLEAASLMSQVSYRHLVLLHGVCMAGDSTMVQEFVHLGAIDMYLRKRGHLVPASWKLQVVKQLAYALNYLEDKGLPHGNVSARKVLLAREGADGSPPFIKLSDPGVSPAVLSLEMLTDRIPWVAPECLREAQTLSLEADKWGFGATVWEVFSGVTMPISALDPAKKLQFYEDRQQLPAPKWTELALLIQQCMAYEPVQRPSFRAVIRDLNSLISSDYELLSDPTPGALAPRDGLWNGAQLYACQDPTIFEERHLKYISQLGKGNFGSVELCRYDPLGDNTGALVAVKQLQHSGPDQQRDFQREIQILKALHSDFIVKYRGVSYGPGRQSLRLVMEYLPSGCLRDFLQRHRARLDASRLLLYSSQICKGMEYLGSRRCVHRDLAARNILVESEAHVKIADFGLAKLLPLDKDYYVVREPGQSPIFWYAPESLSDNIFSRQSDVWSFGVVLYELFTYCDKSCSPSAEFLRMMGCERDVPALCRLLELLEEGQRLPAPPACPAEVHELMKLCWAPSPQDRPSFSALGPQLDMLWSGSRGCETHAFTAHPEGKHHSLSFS
Outline: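 Kinase at 2.5 nM with 10 µM Omnia Y7 peptide and 10 µM (Km app) or 1 mM ATP in 25 mM HEPES pH 7.4, 10 mM MgCl2, 1 mM DTT, 0.01% Triton X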

JAK2 = biological target: T2, JAK2 (Homo sapiens, UniProt O60674); assay: JAK2 Inhibition Assay (Omnia kinase fluorescence peptide substrate assay); conditions: averaged IC50 ranges; assay of Example C; 25 μM (Km app) or 1 mM ATP, 5 nM JAK2
T2 construct: purchased Invitrogen Corporation, Carlsbad, Calif; PV4288
T2 sequence (O60674 whole entry): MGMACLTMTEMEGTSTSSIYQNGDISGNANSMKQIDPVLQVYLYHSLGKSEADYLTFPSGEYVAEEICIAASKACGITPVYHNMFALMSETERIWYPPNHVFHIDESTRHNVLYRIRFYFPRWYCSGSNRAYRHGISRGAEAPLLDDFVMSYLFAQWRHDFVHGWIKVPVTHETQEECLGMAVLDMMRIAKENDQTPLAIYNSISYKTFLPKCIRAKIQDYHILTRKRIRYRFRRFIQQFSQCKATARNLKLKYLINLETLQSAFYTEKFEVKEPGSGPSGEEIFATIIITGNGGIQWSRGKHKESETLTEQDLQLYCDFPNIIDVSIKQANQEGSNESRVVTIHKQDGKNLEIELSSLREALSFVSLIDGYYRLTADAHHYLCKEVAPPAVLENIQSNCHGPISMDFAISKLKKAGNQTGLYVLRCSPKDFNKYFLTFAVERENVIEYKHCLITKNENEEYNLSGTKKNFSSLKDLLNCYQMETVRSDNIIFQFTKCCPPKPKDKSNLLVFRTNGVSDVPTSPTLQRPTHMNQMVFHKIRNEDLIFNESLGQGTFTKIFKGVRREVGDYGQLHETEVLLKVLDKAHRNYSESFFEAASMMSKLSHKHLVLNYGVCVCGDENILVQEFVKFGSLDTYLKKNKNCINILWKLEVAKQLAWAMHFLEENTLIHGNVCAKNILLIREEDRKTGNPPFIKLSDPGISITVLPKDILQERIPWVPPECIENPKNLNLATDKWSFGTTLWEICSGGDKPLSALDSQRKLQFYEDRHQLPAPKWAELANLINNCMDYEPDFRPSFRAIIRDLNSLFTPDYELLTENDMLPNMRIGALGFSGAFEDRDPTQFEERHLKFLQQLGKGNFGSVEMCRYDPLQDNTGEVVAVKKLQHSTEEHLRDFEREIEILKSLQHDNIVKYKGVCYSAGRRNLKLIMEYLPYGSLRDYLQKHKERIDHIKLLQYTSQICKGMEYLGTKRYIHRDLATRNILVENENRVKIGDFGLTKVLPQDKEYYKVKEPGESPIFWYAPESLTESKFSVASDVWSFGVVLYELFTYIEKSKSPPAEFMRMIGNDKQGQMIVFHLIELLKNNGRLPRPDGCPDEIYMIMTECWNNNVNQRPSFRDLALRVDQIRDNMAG
Outline: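 5 nM JAK2 phosphorylated 10 μM Omnia Y7 peptide with ATP at 25 μM (Km app) or 1 mM, in 25 mM HEPES pH 7.4, 10 mM MgCl2, 0.01% Triton X-100, 1 mM DTT, 2% DMSO. Fluorescence (360/485 nm) was read every 50 s for 45 min. 10-point 3-fold series from 10 μM; POC versus uninhibited and background controls, 4-parameter logistic IC50.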

Human Tyk2 kinase domain = biological target: T3, Human Tyk2 kinase domain (Homo sapiens, UniProt P29597); assay: Tyk2 Inhibition Assay (Omnia kinase fluorescence peptide substrate assay); conditions: averaged IC50 ranges; assay of Example A; 10 μM (Km app) or 1 mM ATP, 2 nM Tyk2
T3 construct: comprising amino acids 886 to 1187 with 10 additional histidine residues; 10xHis (histidine tag) (C, cleaved yes); made in house
T3 sequence (P29597 886-1187): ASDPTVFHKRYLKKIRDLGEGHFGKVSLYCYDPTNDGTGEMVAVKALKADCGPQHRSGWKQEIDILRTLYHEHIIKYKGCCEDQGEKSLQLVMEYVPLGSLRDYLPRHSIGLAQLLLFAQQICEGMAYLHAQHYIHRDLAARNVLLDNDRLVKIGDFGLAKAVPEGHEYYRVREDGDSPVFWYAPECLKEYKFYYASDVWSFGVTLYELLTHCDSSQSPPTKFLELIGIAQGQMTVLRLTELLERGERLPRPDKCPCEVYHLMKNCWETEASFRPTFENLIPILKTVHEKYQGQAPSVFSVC
Outline: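 2 nM His-tag-cleaved kinase domain (aa 886–1187) with 8 μM Omnia Y12 peptide, 10 μM (Km app) or 1 mM ATP, pH 7.4 HEPES/10 mM MgCl2, 2% DMSO. Fluorescence (ex 360/em 485 nm) every 50 s for 45 min; IC50 from 4-parameter fit of POC, top dose 10 μM.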

JAK1 = biological target: T4, JAK1 (Homo sapiens, UniProt P23458); assay: JAK1 Inhibition Assay (Omnia kinase fluorescence peptide substrate assay); conditions: averaged IC50 ranges; assay of Example B; 40 μM (Km app) or 1 mM ATP, 15 nM JAK1
T4 construct: purchased Invitrogen Corporation, Carlsbad, Calif; PV4775
T4 sequence (P23458 whole entry): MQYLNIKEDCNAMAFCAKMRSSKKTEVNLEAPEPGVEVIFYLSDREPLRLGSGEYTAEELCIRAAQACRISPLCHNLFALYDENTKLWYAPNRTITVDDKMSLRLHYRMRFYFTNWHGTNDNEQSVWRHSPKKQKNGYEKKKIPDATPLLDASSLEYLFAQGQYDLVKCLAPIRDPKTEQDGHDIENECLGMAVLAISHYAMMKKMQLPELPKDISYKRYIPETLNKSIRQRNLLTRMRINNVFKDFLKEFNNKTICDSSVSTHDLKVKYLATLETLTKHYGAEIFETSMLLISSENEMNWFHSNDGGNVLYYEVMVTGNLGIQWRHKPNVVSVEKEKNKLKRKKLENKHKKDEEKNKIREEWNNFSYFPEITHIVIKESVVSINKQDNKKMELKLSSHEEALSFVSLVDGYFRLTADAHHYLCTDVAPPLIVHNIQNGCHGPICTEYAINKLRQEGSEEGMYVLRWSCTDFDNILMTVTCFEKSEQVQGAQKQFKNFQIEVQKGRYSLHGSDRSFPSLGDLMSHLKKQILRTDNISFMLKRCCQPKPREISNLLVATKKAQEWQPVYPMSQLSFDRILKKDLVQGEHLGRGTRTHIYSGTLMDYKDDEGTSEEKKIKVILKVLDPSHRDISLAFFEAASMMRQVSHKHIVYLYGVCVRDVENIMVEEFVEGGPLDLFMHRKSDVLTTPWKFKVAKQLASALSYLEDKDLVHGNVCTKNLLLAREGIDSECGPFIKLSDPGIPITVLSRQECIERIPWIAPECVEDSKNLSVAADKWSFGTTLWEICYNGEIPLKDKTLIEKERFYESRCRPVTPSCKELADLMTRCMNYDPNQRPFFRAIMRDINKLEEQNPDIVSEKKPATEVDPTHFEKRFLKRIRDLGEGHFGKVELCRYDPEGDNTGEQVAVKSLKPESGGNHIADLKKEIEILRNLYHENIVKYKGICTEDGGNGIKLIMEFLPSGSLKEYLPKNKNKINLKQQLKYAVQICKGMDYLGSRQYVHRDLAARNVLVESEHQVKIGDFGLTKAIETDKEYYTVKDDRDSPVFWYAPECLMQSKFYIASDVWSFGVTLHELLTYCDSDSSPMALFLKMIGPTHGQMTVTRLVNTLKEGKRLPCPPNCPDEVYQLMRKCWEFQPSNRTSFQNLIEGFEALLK

| Structure (SMILES) | IC50 (JAK3) [nM] | IC50 (JAK2) [nM] | IC50 (Human Tyk2 kinase domain) [nM] | IC50 (JAK1) [nM] |
| --- | --- | --- | --- | --- |
| CC(CC#N)n1cc(-c2nc(-c3ccc(N4CCOCC4)cc3)cc3nccn23)cn1 (centres unmarked) [Example 118, 3-(4-(7-(4-morpholinophenyl)imidazo[1,2-c]pyrimidin-5-yl)-1H-pyrazol-1-yl)butanenitrile] | 100 to 1000 | 10 to 100 | < 10 | 10 to 100 |
| CC(C#N)Cn1cc(-c2nc(-c3ccc(N4CCOCC4)cc3)cc3nccn23)cn1 (centres unmarked) [Example 119, 2-methyl-3-(4-(7-(4-morpholinophenyl)imidazo[1,2-c]pyrimidin-5-yl)-1H-pyrazol-1-yl)propanenitrile] | 100 to 1000 | 10 to 100 | 10 to 100 | 10 to 100 |
| N#CCCn1cc(-c2nc(-c3ccc(N4CCOCC4)cc3)cc3nccn23)cn1 [Example 120, 3-(4-(7-(4-morpholinophen-yl)imidazo[1,2-c]pyrimidin-5-yl)-1H-pyrazol-1-yl)propanenitrile] | > 1000 | 10 to 100 | < 10 | 10 to 100 |
| Cc1nn(C(CC#N)C2CCCC2)cc1-c1nc(-c2ccc(N3CCOCC3)cc2)cc2nccn12 (centres unmarked) [Example 121, 3-Cyclopentyl-3-(3-methyl-4-(7-(4-morpholinophenyl)imidazo[1,2-c]pyrimidin-5-yl)-1H-pyrazol-1-yl)propanenitrile] | > 1000 | 10 to 100 | < 10 | 100 to 1000 |
| CC(C)(C)NC(=O)c1cc2nccn2c(-c2cnn(C(CC#N)C3CC3)c2)n1 (centres unmarked) [Example 122, N-tert-butyl-5-(1-(2-cyano-1-cyclopropylethyl)-1H-pyrazol-4-yl)imidazo[1,2-c]pyrimidine-7-carboxamide] | > 1000 | > 1000 | 100 to 1000 | > 1000 |
| N#CCC(C1CC1)n1cc(-c2nc(C(=O)NC3CCCCC3)cc3nccn23)cn1 (centres unmarked) [Example 123, 5-(1-(2-Cyano-1-cyclopropylethyl)-1H-pyrazol-4-yl)-N-cyclohexylimidazo[1,2-c]pyrimidine-7-carboxamide] | > 1000 | > 1000 | 100 to 1000 | > 1000 |
| N#CCC(C1CC1)n1cc(-c2nc(C(=O)NC3CCC3)cc3nccn23)cn1 (centres unmarked) [Example 124, 5-(1-(2-Cyano-1-cyclopropylethyl)-1H-pyrazol-4-yl)-N-cyclobutylimidazo[1,2-c]pyrimidine-7-carboxamide] | > 1000 | > 1000 | 100 to 1000 | > 1000 |
| N#CCC(C1CC1)n1cc(-c2nc(C(=O)Nc3ccccn3)cc3nccn23)cn1 (centres unmarked) [Example 125, 5-(1-(2-cyano-1-cyclopropylethyl)-1H-pyrazol-4-yl)-N-(pyridin-2-yl)imidazo[1,2-c]pyrimidine-7-carboxamide] | > 1000 | > 1000 | 100 to 1000 | 100 to 1000 |
| Cn1cc(-c2cc3nccn3c(-c3ccn(C(CC#N)C4CC4)c3)n2)cn1 (centres unmarked) [Example 126, 3-Cyclopropyl-3-(3-(7-(1-methyl-1H-pyrazol-4-yl)imidazo[1,2-c]pyrimidin-5-yl)-1H-pyrrol-1-yl)propanenitrile] | 100 to 1000 | 10 to 100 | < 10 | 10 to 100 |
| Cn1cc(-c2cc3nccn3c(-c3ccn(C4(CC#N)CNC4)c3)n2)cn1 [Example 127, 2-(3-(3-(7-(1-Methyl-1H-pyrazol-4-yl)imidazo[1,2-c]pyrimidin-5-yl)-1H-pyrrol-1-yl)azetidin-3-yl)acetonitrile trifluoroacetate] | > 1000 | 100 to 1000 | 10 to 100 | 100 to 1000 |
| Cn1cc(-c2cc3nccn3c(-c3ccn(C4(CC#N)CN(CC(F)(F)F)C4)c3)n2)cn1 [Example 128, 2-(3-(3-(7-(1-Methyl-1H-pyrazol-4-yl)imidazo[1,2-c]pyrimidin-5-yl)-1H-pyrrol-1-yl)-1-(2,2,2-trifluoroethyl)azetidin-3-yl)acetonitrile] | > 1000 | 10 to 100 | < 10 | 100 to 1000 |
| Cn1cc(-c2cc3nccn3c(-c3ccn(C4(CC#N)CN(C(=O)OC(C)(C)C)C4)n3)n2)cn1 [Example 129, Tert-butyl 3-(cyanomethyl)-3-(3-(7-(1-methyl-1H-pyrazol-4-yl)imidazo[1,2-c]pyrimidin-5-yl)-1H-pyrazol-1-yl)azetidine-1-carboxylate] | > 1000 | > 1000 | 100 to 1000 | > 1000 |
| Cn1cc(-c2cc3nccn3c(-c3ccn(C4(CC#N)CNC4)n3)n2)cn1 [Example 130, 2-(3-(3-(7-(1-Methyl-1H-pyrazol-4-yl)imidazo[1,2-c]pyrimidin-5-yl)-1H-pyrazol-1-yl)azetidin-3-yl)acetonitrile hydrochloride] | > 1000 | 100 to 1000 | 100 to 1000 | > 1000 |
| Cn1cc(-c2cc3nccn3c(-c3ccn(C4(CC#N)CN(CC(F)(F)F)C4)n3)n2)cn1 [Example 131, 2-(3-(3-(7-(1-Methyl-1H-pyrazol-4-yl)imidazo[1,2-c]pyrimidin-5-yl)-1H-pyrazol-1-yl)-1-(2,2,2-trifluoroethyl)azetidin-3-yl)acetonitrile] | > 1000 | 100 to 1000 | 10 to 100 | > 1000 |
| Cn1cc(-c2cc3nccn3c(-c3ccn(C(CC#N)C4CC4)n3)n2)cn1 (centres unmarked) [Example 132, 3-Cyclopropyl-3-(3-(7-(1-methyl-1H-pyrazol-4-yl)imidazo[1,2-c]pyrimidin-5-yl)-1H-pyrazol-1-yl)propanenitrile] | 100 to 1000 | 100 to 1000 | 10 to 100 | > 1000 |
| Cn1cc(-c2cc3nccn3c(-c3cnn(C4(CC#N)CCN(S(=O)(=O)C(F)(F)F)C4)c3)n2)cn1 (centres unmarked) [Example 133, 2-(3-(4-(7-(1-methyl-1H-pyrazol-4-yl)imidazo[1,2-c]pyrimidin-5-yl)-1H-pyrazol-1-yl)-1-(trifluoromethylsulfonyl)pyrrolidin-3-yl)acetonitrile] | 100 to 1000 | 10 to 100 | < 10 | 10 to 100 |
| CC(=O)N1CCC(CC#N)(n2cc(-c3nc(-c4cnn(C)c4)cc4nccn34)cn2)C1 (centres unmarked) [Example 134, 2-(1-acetyl-3-(4-(7-(1-methyl-1H-pyrazol-4-yl)imidazo[1,2-c]pyrimidin-5-yl)-1H-pyrazol-1-yl)pyrrolidin-3-yl)acetonitrile] | > 1000 | 100 to 1000 | 100 to 1000 | > 1000 |
